According to patent publication US20120128745A1, “BENZYLIDENE MALONATES” (BASF SE, priority 2009, published 2012):

Legend:
[1] = stabilization (photostability) of Butyl Methoxydibenzoylmethane in O/W emulsion film under solar simulator, HPLC; type: physicochemical; settings: 20 μm film on quartz plate, solar simulator 2 h (10 MED)
Protocol: Testing of stabilization of Butyl Methoxydibenzoylmethane (BMDBM, Parsol 1789):
The photostability of Butyl Methoxydibenzoylmethane is determined by spreading the emulsion as a 20 μm thick film on a quartz plate. The film is irradiated using a solar simulator for 2 h (10 MED). After irradiation, the quartz plate is plunged into 5 ml of tetrahydrofurane. The amount of UV-A filter Butyl Methoxydibenzoylmethane is then determined using high performance liquid chromatography. The residual Butyl Methoxydibenzoylmethane is determined to be 47%.
The photostability of Butyl Methoxydibenzoylmethane in the comparative formulation C is determined as described above for formulation B. The residual Butyl Methoxydibenzoylmethane is determined to be 4%.

[2] = photostability of 4-Methoxybenzylidene-di-tert-butyl-malonate in O/W emulsion film under solar simulator, HPLC; type: physicochemical; settings: formulation A, solar simulator up to 10 h (50 MED)
Protocol: The photostability of Butyl 4-Methoxybenzylidene-di-tert-butyl-malonate is determined by spreading the emulsion as a 20 μm thick film on four quartz plates. The plates are irradiated using a solar simulator for 1 h (5 MED), 2 h (10 MED), 4 h (20 MED) and 10 h (50 MED). After the indicated irradiation times one of the quartz plate is plunged into 5 ml of tetrahydrofurane. The amount of UV-B filter 4-Methoxybenzylidene-di-tert-butyl-malonate is then determined using high performance liquid chromatography. The residual 4-Methoxybenzylidene-di-tert-butyl-malonate is determined to be 100% (±1%) in all cases.

Row | Structure (SMILES) | residual Butyl Methoxydibenzoylmethane ([1]; comparative formulation C (without benzylidene malonate)) [%] | residual Butyl Methoxydibenzoylmethane ([1]; formulation B (with 4-Methoxybenzylidene-di-tert-butyl-malonate)) [%] | photostability in an O/W sunscreen formulation [2]
1 | COc1ccc(C(=O)CC(=O)c2ccc(C(C)(C)C)cc2)cc1 [Butyl Methoxydibenzoylmethane, 1,3-Propanedione, 1-[4-(1,1-dimethylethyl)phenyl]-3-(4-methoxyphenyl)-] | 4 | 47 | –
2 | COc1ccc(C=C(C(=O)OC(C)(C)C)C(=O)OC(C)(C)C)cc1 [Example 18, 4-Methoxybenzylidene-di-tert-butyl-malonate] | – | – | complete photostability
